Laboratory results as given in PubChem BioAssay (NCI).
Values joined by “and” are separate entries in the source; they are usually repeats but may differ in a detail not shown here. Identical values can stand only once.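 Results reflect a 48-hour exposure of cells in 96-well plates to compound at five concentrations. GI50 is the concentration that inhibits growth by half. TGI denotes the concentration required for complete inhibition of growth.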 *1 amine or outer side, *2 acyl side, *3 side chain or, on linkers, in order; H or OH if unused. Where a SMILES comes first, the peptide text is derived from it. Bridges are numbered along the chain shown (N, C = ends). Roman numbers before positions name the chains, in order. [ ]: non-standard residue; d: D form. Actinocin(1to9) = Cc1c2oc3c(C)ccc(C(=O)[*:2])c3nc-2c(C(=O)[*:1])c(N)c1=O; NMeV = CN[CH](C(=O)O)C(C)C; Sar = CNCC(=O)O

Key:
Experiment in all cases: NCI anticancer screen, dose series, 48 h
OVCAR-5 ovarian = system: OVCAR-5 ovarian
MDA-MB-231 breast = system: MDA-MB-231 breast
MCF7 breast = system: MCF7 breast
SF-268 CNS = system: SF-268 CNS
NCI-H23 lung = system: NCI-H23 lung
NCI/ADR-RES ovarian = system: NCI/ADR-RES ovarian
A498 renal = system: A498 renal
HT29 colon = system: HT29 colon
MALME-3M melanoma = system: MALME-3M melanoma
HOP-92 NSCLC = system: HOP-92 NSCLC
HL-60(TB) leukemia = system: HL-60(TB) leukemia
PC-3 prostate = system: PC-3 prostate
NCI-H460 lung = system: NCI-H460 lung
SNB-75 CNS = system: SNB-75 CNS
MOLT-4 leukemia = system: MOLT-4 leukemia
RXF 393 renal = system: RXF 393 renal
DU-145 prostate = system: DU-145 prostate

Row | Structure (SMILES) | TGI (OVCAR-5 ovarian) | TGI (MDA-MB-231 breast) | TGI (MCF7 breast) | TGI (SF-268 CNS) | TGI (NCI-H23 lung) | TGI (NCI/ADR-RES ovarian) | TGI (A498 renal) | TGI (HT29 colon) | TGI (MALME-3M melanoma) | TGI (HOP-92 NSCLC) | TGI (HL-60(TB) leukemia) | TGI (PC-3 prostate) | TGI (NCI-H460 lung) | TGI (SNB-75 CNS) | TGI (MOLT-4 leukemia) | TGI (RXF 393 renal) | TGI (DU-145 prostate) | GI50 (OVCAR-5 ovarian) | GI50 (SF-268 CNS) | GI50 (SNB-75 CNS)
1 | O=C(O[C@H](/C=C/c1ccccc1)P1(=O)N(Cc2ccccc2)[C@H]2CCCC[C@@H]2N1Cc1ccccc1)c1ccccc1 | > 100 µM | 25.7 µM | > 100 µM | > 100 µM | 48.3 µM | > 100 µM | > 100 µM | > 100 µM | 25.6 µM | 5.86 µM | > 100 µM | > 100 µM | > 100 µM |  |  |  |  |  |  | 
2 | O=S(=O)(N=[Se](=O)(c1ccccc1)c1ccccc1)c1ccccc1 | > 100 µM | > 100 µM | > 100 µM | > 100 µM | > 100 µM | > 100 µM | > 100 µM | > 100 µM |  | > 100 µM | 88.1 µM | > 100 µM | > 100 µM | > 100 µM | > 100 µM |  |  |  |  | 
3 | Cc1cc(N(CCC#N)CCC#N)ccc1/C(Sc1ccccc1)=C(\NC(=O)/C=C/c1ccccc1)C(=O)Sc1ccccc1 | 16.3 µM |  |  | 3.81 µM | 11.2 µM |  | 16.5 µM | 11.8 µM | 25 µM | 15 µM | 5.08 µM |  | 23.4 µM | 17.7 µM | 8.27 µM | 4.5 µM |  |  |  | 
4 | CNc1ccc(C)cc1S(=O)(=O)c1ccccc1[N+](=O)[O-] | > 100 µM | > 100 µM | 65 µM | > 100 µM | > 100 µM | > 100 µM | > 100 µM | > 100 µM | > 100 µM |  |  | > 100 µM | > 100 µM | > 100 µM | > 100 µM | > 100 µM | > 100 µM |  |  | 
5 | COc1ccc(CC2NC(=O)C(NC(=O)c3c4nc5c(C(=O)NC6C(=O)NC(Cc7ccc(OC)cc7)C(=O)N7CCCC7C(=O)N(C)CC(=O)N(C)C(C(C)C)C(=O)OC6C)ccc(C)c5oc-4c(C)c(=O)c3N)C(C)OC(=O)C(C(C)C)N(C)C(=O)CN(C)C(=O)C3CCCN3C2=O)cc1 (stereo not given) (I: TY(Me)P[Sar][NMeV] / II: TY(Me)P[Sar][NMeV]; ester I:1-I:C, II:1-II:C; linker I:N-II:N via Actinocin(1to9); configuration not given here) | 0.419 µM and 0.67 µM | 0.731 µM |  | 0.118 µM and 0.526 µM | 0.126 µM |  | 0.0242 µM | 0.0174 µM and 0.0463 µM | 0.0374 µM |  | < 0.001 µM | 0.355 µM and 0.212 µM |  | 0.0339 µM and 0.324 µM |  | 0.0203 µM | 0.0843 µM | 0.0302 µM | < 0.001 µM | 0.0552 µM
6 | Cc1c(N)c(C#N)c2n(C)c3ncccc3n2c1=O |  |  |  | > 100 µM | > 100 µM |  |  | > 100 µM | > 100 µM | > 100 µM | > 100 µM |  | > 100 µM | > 100 µM | > 100 µM | > 100 µM |  |  |  | 
7 | CCc1n[nH]c(=O)n1-n1c(C)ccc1C | > 100 µM | > 100 µM | > 100 µM | > 100 µM |  | > 100 µM | > 100 µM | > 100 µM | > 100 µM |  |  | > 100 µM | > 100 µM | > 100 µM | > 100 µM | > 100 µM | > 100 µM |  |  | 
8 | O=C1NC(=S)NC(=O)C1=Cc1ccc([N+](=O)[O-])o1 | 34.6 µM |  |  | > 100 µM | 31.9 µM |  | > 100 µM | 48.7 µM | 28.4 µM | 36.3 µM | 87.6 µM |  | > 100 µM | 31.6 µM | 43.4 µM | 38.3 µM |  |  |  | 
9 | CC(=O)c1ccc(NC(=O)C(=O)CC(=O)c2sc(-n3nc(-c4ccccc4)cc3-c3ccccc3)nc2C)cc1 | > 100 µM |  |  | > 100 µM | > 100 µM |  | > 100 µM | > 100 µM | > 100 µM |  | > 100 µM |  | > 100 µM |  | > 100 µM | > 100 µM |  |  |  | 
10 | COC(=O)CSc1cc(Cl)c(C)cc1S(=O)(=O)Nc1n[nH]c(N)n1 | > 10 µM |  | > 10 µM | > 10 µM | > 10 µM | > 10 µM | > 10 µM | > 10 µM | > 10 µM | > 10 µM | > 10 µM | > 10 µM | > 10 µM | > 10 µM | > 10 µM | > 10 µM | > 10 µM |  |  | 
11 | CCN(CC)CC(C(C)=O)C(c1ccccc1)c1c(O)c2ccccc2oc1=O (stereo not given) | > 100 µM |  |  | > 100 µM |  |  | > 100 µM | > 100 µM | > 100 µM |  | > 100 µM |  | > 100 µM | > 100 µM | > 100 µM | > 100 µM |  |  |  | 
12 | CCc1cccc(C(C)C)c1NC(=O)C(=O)Nn1c(=S)[nH]c2ccccc2c1=O | > 100 µM | > 100 µM | > 100 µM | > 100 µM | > 100 µM | > 100 µM | > 100 µM | > 100 µM | > 100 µM | > 100 µM |  | > 100 µM | > 100 µM | > 100 µM | > 100 µM | > 100 µM |  |  |  | 
13 | Cc1ccc(N=NC(=O)NNc2ccc(C)cc2Br)c(Br)c1 | 68.4 µM | > 100 µM | 41.3 µM | 97.2 µM | > 100 µM |  | 52.3 µM | > 100 µM | 36.4 µM |  | 63 µM | 72.5 µM | 47.3 µM | > 100 µM | 60.4 µM |  | 74 µM |  |  | 
14 | O=[N+]([O-])c1ccc(C2=NOC(c3ccccc3)N2C23CC4CC(CC(C4)C2)C3)cc1 (stereo not given) | 53.2 µM | > 100 µM | 60.1 µM | > 100 µM | > 100 µM | > 100 µM | > 100 µM | 44.6 µM | 85.5 µM |  | > 100 µM | 43.8 µM | 47.5 µM | 63.7 µM | 37.8 µM |  | 95 µM |  |  | 
15 | Cc1c(CN2CCOCC2)c(CN2CCOCC2)c(C)n1-c1ccc(Cl)cn1 | > 100 µM | > 100 µM | > 100 µM | > 100 µM | > 100 µM | > 100 µM | > 100 µM | > 100 µM | > 100 µM |  |  | > 100 µM | > 100 µM | > 100 µM | > 100 µM | > 100 µM | > 100 µM |  |  | 
16 | Cc1cc(C(O)CCCc2ccccc2)cc(C)c1O (stereo not given) | > 100 µM |  |  | > 100 µM | > 100 µM |  | 81.3 µM |  | 64.3 µM |  | 41.9 µM |  | > 100 µM | 78 µM | 73.8 µM | 60 µM |  |  |  | 
